Source: US20050176655A1, “Novel macrolide derivatives havaing effect of potentiating antifungal activity” (priority 2002, published 2005)

Columns and labels:
[1] = system: Candida albicans ATCC 64548; test: Paper disk method, enhancing action for activities of azole antifungal agents; type: cell-based; details: 24 hours; for Inhibition activity (inhibition ring mm) C. albicans ATCC 64548 GYM / Transparency of the inhibition ring C. albicans ATCC 64548 GYM: miconazole 0.03 μg/ml; for Inhibition activity (inhibition ring mm) C. albicans ATCC 64548 GYF / Transparency of the inhibition ring C. albicans ATCC 64548 GYF: fluconazole 0.5 μg/ml
Procedure: (§1) Test organisms used were Candida albicans ATCC 64548, fluconazole resistant Candida albicans ATCC 64550 and Aspergillus niger ATCC 6275. Candida spp. were cultured in Waksman broth (glucose 2.0%, peptone 0.5%, dry yeast 0.3%, meat extract 0.5%, NaCl 0.5% and CaCO3 0.3%, pH 7.0) at 27° C. for 40 hours, then 0.1% thereof was inoculated on GY agar medium (glucose 1.0%, yeast extract 0.5% and agar 0.8%, pH 6.0). Spore suspension 0.2% of Aspergillus niger ATCC 6275 was inoculated on GY agar medium.
(§2) Azole antifungal agents used were miconazole (Sigma Inc., the U.S.) and fluconazole (ICN Pharmaceuticals, Inc., the U.S.), and were added at concentrations without affecting growth on each test organisms follows.
Candida albicans ATCC 64548: miconazole 0.03 μg/ml or fluconazole 0.5 μg/ml.
(§3) In the above medium, a medium added with miconazole to GY medium (control) is designated as GYM, and a medium added with fluconazole is designated as GYF. Activities were assessed by means of paper disk method (thickness: 8 mm, ADVANTEC MFS INC., Japan). Diameter of inhibition ring is expressed with mm unit after culturing Candida spp. for 24 hours and Aspergillus niger ATCC 6275 for 48 hours. Transparency of the inhibition ring is assessed with 5 degrees of A, B, C, D and E (transparence<A<B<C<D<E<opaque).

[2] = system: Aspergillus niger ATCC 6275; test: as above; type: cell-based; details: 48 hours; for Inhibition activity (inhibition ring mm) A. niger ATCC 6275 GYF / Transparency of the inhibition ring A. niger ATCC 6275 GYF: fluconazole 10 μg/ml
Procedure: as §1, §2
Aspergillus niger ATCC 6275: miconazole 0.1 μg/ml or fluconazole 10 μg/ml.
as §3

[3] = 100 μg/8 mm disk, GYM, miconazole 0.1 μg/ml
[4] = 50 μg/8 mm disk, GY medium (control, no azole)

Row | Molecule | Inhibition activity (inhibition ring mm) C. albicans ATCC 64548 GYM ([1]; 50 μg/8 mm disk) | Transparency of the inhibition ring C. albicans ATCC 64548 GYM ([1]; 50 μg/8 mm disk) | Inhibition activity (inhibition ring mm) A. niger ATCC 6275 GYF ([2]; 10 μg/8 mm disk) | Transparency of the inhibition ring A. niger ATCC 6275 GYF ([2]; 10 μg/8 mm disk) | Inhibition activity (inhibition ring mm) A. niger ATCC 6275 GYF ([2]; 50 μg/8 mm disk) | Transparency of the inhibition ring A. niger ATCC 6275 GYF ([2]; 50 μg/8 mm disk) | Inhibition activity (inhibition ring mm) C. albicans ATCC 64548 GYM ([1]; 100 μg/8 mm disk) | Transparency of the inhibition ring C. albicans ATCC 64548 GYM ([1]; 100 μg/8 mm disk) | also measured
1 | CCC1OC(=O)C(C)C(OC2CC(C)(OC)C(O)C(C)O2)C(C)C(OC2OC(C)CC(N(C)C)C2O)C(C)(O)CC(C)C(=NOCC=CCN2CCNCC2)C(C)C(O)C1(C)O (stereo not drawn) [Compound 762] | 13 mm | D (Growth of test organism was inhibited 35% or more and 55% or less.) | 14 mm | E (Growth of test organism was inhibited 35% or less.) | 15 mm | E (Growth of test organism was inhibited 35% or less.) | – | – | –
2 | CCC1OC(=O)C(C)C(OC2CC(C)(OC)C(O)C(C)O2)C(C)C(OC2OC(C)CC(N(C)C)C2O)C(C)(O)CC(C)C(=NOCC=CCNCCN)C(C)C(O)C1(C)O (stereo not drawn) [Compound 763, 9(E)-4-(aminoethylamino)-2-butenyloxime-erythromycin A] | 16 mm | C (Growth of test organism was inhibited 55% or more and 75% or less.) | 12 mm | E (Growth of test organism was inhibited 35% or less.) | 15 mm | E (Growth of test organism was inhibited 35% or less.) | – | – | Inhibition activity (inhibition ring mm) C. albicans ATCC 64548 GYF ([1]; 50 μg/8 mm disk): 10 mm; Transparency of the inhibition ring C. albicans ATCC 64548 GYF ([1]; 50 μg/8 mm disk): D (Growth of test organism was inhibited 35% or more and 55% or less.)
3 | CCC1OC(=O)C(C)C(OC2CC(C)(OC)C(O)C(C)O2)C(C)C(OC2OC(C)CC(N(C)C)C2O)C(C)(O)CC(C)C(=NOCCCCON=C2C(C)CC(C)(O)C(OC3OC(C)CC(N(C)C)C3O)C(C)C(OC3CC(C)(OC)C(O)C(C)O3)C(C)C(=O)OC(CC)C(C)(O)C(O)C2C)C(C)C(O)C1(C)O (stereo not drawn) [Compound 764, 9(E)-4-{9(E)-oxime-erythromycin A}-2(E)buthyloxime-erythromycin A] | 9 mm | E (Growth of test organism was inhibited 35% or less.) | – | – | – | – | – | – | –
4 | CC[C@H]1OC(=O)[C@H](C)[C@@H](O[C@H]2C[C@@](C)(OC)[C@@H](O)[C@H](C)O2)[C@H](C)[C@@H](O[C@@H]2O[C@H](C)C[C@H](N(C)C/C=C/CO/N=C3\[C@H](C)C[C@@](C)(O)[C@H](O[C@@H]4O[C@H](C)C[C@H](N(C)C)[C@H]4O)[C@@H](C)[C@H](O[C@H]4C[C@@](C)(OC)[C@@H](O)[C@H](C)O4)[C@@H](C)C(=O)O[C@H](CC)[C@@](C)(O)[C@H](O)[C@H]3C)[C@H]2O)[C@](C)(O)C[C@@H](C)C(=O)[C@H](C)[C@@H](O)[C@]1(C)O [Compound 765, 3′-de-N-methyl-3′-N-{4-9(E)oxime-erythro-mycin A}-2(E)-butenyl-erythromycin A] | 14 mm | E (Growth of test organism was inhibited 35% or less.) | 14 mm | E (Growth of test organism was inhibited 35% or less.) | 21 mm | E (Growth of test organism was inhibited 35% or less.) | – | – | Inhibition activity (inhibition ring mm) A. niger ATCC 6275 GYM [2, 3]: 14 mm; Transparency of the inhibition ring A. niger ATCC 6275 GYM [2, 3]: E (Growth of test organism was inhibited 35% or less.)
5 | CCC1OC(=O)C(C)C(OC2CC(C)(OC)C(O)C(C)O2)C(C)C(OC2OC(C)CC(N(C)CCN(C)C3CC(C)OC(OC4C(C)C(OC5CC(C)(OC)C(O)C(C)O5)C(C)C(=O)OC(CC)C(C)(O)C(O)C(C)C(=O)C(C)CC4(C)O)C3O)C2O)C(C)(O)CC(C)C(=O)C(C)C(O)C1(C)O (stereo not drawn) [Compound 752, 3′-de-N-methyl-3′-N-{2-amino-(3′-de-N-methyl-erythromycin A)}ethyl-erythromycin A] | – | – | – | – | 17 mm | E (Growth of test organism was inhibited 35% or less.) | 12 mm | E (Growth of test organism was inhibited 35% or less.) | –
6 | CCC1OC(=O)C(C)C(OC2CC(C)(OC)C(O)C(C)O2)C(C)C(OC2OC(C)CC(N(C)CC=CCN(C)C3CC(C)OC(OC4C(C)C(OC5CC(C)(OC)C(O)C(C)O5)C(C)C(=O)OC(CC)C(C)(O)C(O)C(C)C(=O)C(C)CC4(C)OC)C3O)C2O)C(C)(OC)CC(C)C(=O)C(C)C(O)C1(C)O (stereo not drawn) [Compound 758, 3′-de-N-methyl-3′-N-{4-amino-(3′-de-N-methyl-clarythromycin A)}-2(E)-butenyl-clarythromycin A] | 12 mm | D (Growth of test organism was inhibited 35% or more and 55% or less.) | – | – | – | – | – | – | Inhibition activity (inhibition ring mm) C. albicans ATCC 64548 GYM ([1]; 10 μg/8 mm disk): 11 mm; Transparency of the inhibition ring C. albicans ATCC 64548 GYM ([1]; 10 μg/8 mm disk): E (Growth of test organism was inhibited 35% or less.); Inhibition activity (inhibition ring mm) C. albicans ATCC 64548 GYF ([1]; 100 μg/8 mm disk): 15 mm; Transparency of the inhibition ring C. albicans ATCC 64548 GYF ([1]; 100 μg/8 mm disk): E (Growth of test organism was inhibited 35% or less.)
7 | C=CCCON=C1C(C)CC(C)(O)C(OC2OC(C)CC(N(C)C)C2O)C(C)C(OC2CC(C)(OC)C(O)C(C)O2)C(C)C(=O)OC(CC)C(C)(O)C(O)C1C (stereo not drawn) [Compound 769, 9(E)-3-butenyloxime-erythromycin A] | – | – | 11 mm | E (Growth of test organism was inhibited 35% or less.) | 16 mm | E (Growth of test organism was inhibited 35% or less.) | 14 mm | E (Growth of test organism was inhibited 35% or less.) | Inhibition activity (inhibition ring mm) A. niger ATCC 6275 GY [2, 4]: 10 mm; Transparency of the inhibition ring A. niger ATCC 6275 GY [2, 4]: E (Growth of test organism was inhibited 35% or less.)
8 | CCC(O)C(C)(O)C1OC(=O)C(C)C(OC2CC(C)(OC)C(O)C(C)O2)C(C)C(OC2OC(C)CC(N(C)CCN(C)C3CC(C)OC(OC4C(C)C(OC5CC(C)(OC)C(O)C(C)O5)C(C)C(=O)OC(C(C)(O)C(O)CC)C(C)C5=C(C)CC4(C)O5)C3O)C2O)C2(C)CC(C)=C(O2)C1C (stereo not drawn) [Compound 741, 3′-de-N-methyl-3′-N-{-amino-(3′-de-N-methyl-anhydro-pseudoerythromycin A 6,9-hemiketal)}ethyl-anhydro-pseudoerythromycinA 6,9-hemiketal] | – | – | – | – | – | – | 14 mm | D (Growth of test organism was inhibited 35% or more and 55% or less.) | –
9 | CCC1OC(=O)C(C)C(OC2CC(C)(OC)C(O)C(C)O2)C(C)C(OC2OC(C)CC(N(C)C)C2O)C(C)(O)CC(C)C(=NOCC=CCNCCNCC=CCON=C2C(C)CC(C)(O)C(OC3OC(C)CC(N(C)C)C3O)C(C)C(OC3CC(C)(OC)C(O)C(C)O3)C(C)C(=O)OC(CC)C(C)(O)C(O)C2C)C(C)C(O)C1(C)O (stereo not drawn) [Compound 761] | – | – | – | – | – | – | 14 mm | E (Growth of test organism was inhibited 35% or less.) | –
10 | 2′,4″,13-Tri-O-anhydro-pseudoerythromycin A 6,9-hemiketal [Compound 719] | 10 mm | E (Growth of test organism was inhibited 35% or less.) | – | – | – | – | 13 mm | E (Growth of test organism was inhibited 35% or less.) | Inhibition activity (inhibition ring mm) C. albicans ATCC 64548 GYM ([1]; 10 μg/8 mm disk): 9 mm; Transparency of the inhibition ring C. albicans ATCC 64548 GYM ([1]; 10 μg/8 mm disk): E (Growth of test organism was inhibited 35% or less.)
11 | CCC1OC(=O)C(C)C(OC2CC(C)(OC)C(O)C(C)O2)C(C)C(OC2OC(C)CC(N(C)C)C2O)C(C)(O)CC(C)C(=NOCC=CCON=C2C(C)CC(C)(O)C(OC3OC(C)CC(N(C)C)C3O)C(C)C(OC3CC(C)(OC)C(O)C(C)O3)C(C)C(=O)OC(CC)C(C)(O)C(O)C2C)C(C)C(O)C1(C)O (stereo not drawn) [Compound 759, 9(E)-4-{9(E)-oxime-erythromycin A}-2-butenyloxime-erythromycin A] | – | – | – | – | – | – | 13 mm | D (Growth of test organism was inhibited 35% or more and 55% or less.) | –
